Values quoted from earlier work in US9511030B2, “Controlled release particles” (priority 2011, dated 2016).

| Compound | water solubility |
| --- | --- |
| C=C(C)C(=O)O [Methacrylic acid] | 8.9 mass % |
| CCCC1COC(Cn2cncn2)(c2ccc(Cl)cc2Cl)O1 (centres unmarked) [Propiconazole, 1-[2-(2,4-dichlorophenyl)-4-n-propyl-1,3-dioxolane-2-ylmethyl]-1H-1,2,4-triazole] | 110 ppm |
